# From patent publication US20040229268A1, “Method and kit for identifying antibiotic-resistant microorganisms” (priority 2003, published 2004)
# Marks after values point to notes of the source that are not given here.
# Test system: VanA and VanB gene sequences
# Experiment: HPA for detecting VanA and VanB gene sequences (Example 12)
# Format: binding, E. faecalis, E. faecium
# Protocol: Double-stranded plasmids harboring inserts of either VanA or VanB gene sequences were prepared for use as control templates. More specifically, VanA gene sequences were amplified in a PCR protocol using primers having the sequences of VanA(+)464 Kpn and VanA(−)1325Bam. Similarly, VanB gene sequences were amplified using primers having the sequences of VanB(+)084 Kpn and VanB(−)1006Bam. Genomic DNA samples from bacteria known to have VanA or VanB genotypes were used as templates in the amplification reactions. Blunt-ended amplification products containing VanA gene sequences were ligated into a pPCR-[…] SK(+) (Stratagene; La Jolla, Calif.) plasmid cloning vector, and propagated in E. coli host bacteria using procedures that will be familiar to those having an ordinary level of skill in the art. Double-stranded amplification products containing VanB gene sequences were first digested with KpnI and BamHI, and then ligated into a similarly cleaved pBLUESCRIPT-II KS(+) (Stratagene; La Jolla, Calif.) plasmid cloning vector. Isolated double-stranded plasmid DNA served as controls in hybridization assays.
# 2′-deoxy probes having the sequences presented under Example 10 were prepared by standard phosphoramidite synthesis. AE labeling of the probes also was performed using standard procedures, as described herein and as will be familiar to those having an ordinary level of skill in the art. Samples of four different cultured VRE bacteria described under the previous Example were lysed essentially as described above. RNA in the samples was hydrolyzed and DNA denatured by incubation of the lysate with hydroxide at elevated temperature. In parallel procedures, samples of two plasmid clones harboring either the VanA or VanB inserts (as described under the previous Example) were also treated to denature DNA. All samples were neutralized by addition of a buffered HCl reagent. AE-labeled probes were added to each of the samples and then hybridized at 55-60° C. for 45 minutes to permit formation of complementary probe:target duplexes. The pan-bacterial probe (Probe Reagent 1, GEN-PROBE® MTC-NI Kit, catalog no. 4573) described under Example 2 was used as a positive control to confirm the presence of bacterial nucleic acid targets. Trials containing labeled probe in the absence of an added target (i.e., “probe alone”) served as negative controls. The AE label joined to probe molecules that remained single-stranded following the hybridization procedure were destroyed by treatment under mild alkaline conditions, and the extent of specific hybrid formation quantified by luminometry as described in the foregoing Examples.
sequence,measurement,setting,value
"GAGCTTTGAATATCGCAGCCTAC (AE label linker 11/12, chemistry not fully specified; listed as Enterococcus faecalis) [Van A&B(−)734]",Probe Hybridization (in RLU),"ATCC 51299 (VanB), E. faecalis lysate",5497 RLU
same,Probe Hybridization (in RLU),"ATCC 51575 (VanB), E. faecalis lysate",5166 RLU
same,Probe Hybridization (in RLU),"ATCC 700221 (VanA), E. faecium lysate",8901 RLU
same,Probe Hybridization (in RLU),"ATCC 700802 (VanB), E. faecalis lysate",7425 RLU
same,Probe Hybridization (in RLU),Probe Alone (no added target),240 RLU
same,Probe Hybridization (in RLU),VanA clone (plasmid),48999 RLU
same,background-corrected hybridization signal relative to negative control (fold greater than background),VanA-positive bacterial sample ATCC # 700221,about 36 fold
same,Probe Hybridization (in RLU),VanB clone (plasmid),718† RLU
same,background-corrected hybridization signal relative to negative control (fold greater than background),"average over VanB-positive bacterial samples ATCC Nos. 51575, 700802 and 51299",about 24 fold
same,hybridization signal (in words),nucleic acids from VRE bacteria either VanA-positive or VanB-positive,very strong signals
